System: 485368-065-R3-J5-PDC spheroids with HUVEC/MSC, viability
Test: Anticancer human tumor 485368-065-R3-J5-PDC patient-derived pancreatic carcinoma cell line growth inhibition [RAS]
Details: for IC50: curve of first compound; for viability, T/C: stronger effect = lower value
In short: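 Multi-cell-type spheroids: tumor cells plus HUVEC endothelial cells and mesenchymal stem cells. RAS-pathway inhibitors were combined with targeted agents, each dosed in half-log steps down from clinical Cmax, or from 10 microM when Cmax was unknown.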

[1] = second compound 0.000949 µM, first compound 0.0316 µM
[2] = second compound 0.000949 µM, first compound 0.1 µM
[3] = second compound 0.000949 µM, first compound 0.316 µM
[4] = second compound 0.000949 µM, first compound 1 µM
[5] = second compound 0.000949 µM, first compound 3.16 µM
[6] = second compound 0.000949 µM, first compound 10 µM
[7] = second compound 0.003 µM, first compound 0.0316 µM
[8] = second compound 0.003 µM, first compound 0.1 µM
[9] = second compound 0.003 µM, first compound 0.316 µM
[10] = second compound 0.003 µM, first compound 1 µM
[11] = second compound 0.003 µM, first compound 3.16 µM
[12] = second compound 0.003 µM, first compound 10 µM
[13] = second compound 0.00949 µM, first compound 0.0316 µM
[14] = second compound 0.00949 µM, first compound 0.1 µM
[15] = second compound 0.00949 µM, first compound 0.316 µM
[16] = second compound 0.00949 µM, first compound 1 µM
[17] = second compound 0.00949 µM, first compound 3.16 µM
[18] = second compound 0.00949 µM, first compound 10 µM
[19] = second compound 0.03 µM, first compound 0.0316 µM
[20] = second compound 0.03 µM, first compound 0.1 µM
[21] = second compound 0.03 µM, first compound 0.316 µM
[22] = second compound 0.03 µM, first compound 1 µM
[23] = second compound 0.03 µM, first compound 3.16 µM
[24] = second compound 0.03 µM, first compound 10 µM
[25] = second compound 0.0949 µM, first compound 0.0316 µM
[26] = second compound 0.0949 µM, first compound 0.1 µM
[27] = second compound 0.0949 µM, first compound 0.316 µM
[28] = second compound 0.0949 µM, first compound 1 µM
[29] = second compound 0.0949 µM, first compound 3.16 µM
[30] = second compound 0.0949 µM, first compound 10 µM
[31] = second compound 0.3 µM, first compound 0.0316 µM
[32] = second compound 0.3 µM, first compound 0.1 µM
[33] = second compound 0.3 µM, first compound 0.316 µM
[34] = second compound 0.3 µM, first compound 1 µM
[35] = second compound 0.3 µM, first compound 3.16 µM
[36] = second compound 0.3 µM, first compound 10 µM
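Note: spheroids exposed to agents for seven days before readout.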

Work on `CCC(CC)c1cc(NC2CCC(N)C2)n2nccc2n1` (stereo unspecified) + CCn1c(-c2cccnc2C(C)OC)c2c3cc(ccc31)N1CCOC(CC(NC(=O)C(C(C)C)N(C)C(=O)C3(F)CCN(C(=O)C#CC(C)(C)N(C)C)CC3)C(=O)N3CCCC(N3)C(=O)OCC(C)(C)C2)C1 yielded an IC50 (second compound 0.000949 µM) of 1.98 µM, an IC50 (second compound 0.003 µM) of 2.01 µM and an IC50 (second compound 0.00949 µM) of 1.99 µM. For the same compound, the IC50 (second compound 0.03 µM) was 2.03 µM, the IC50 (second compound 0.0949 µM) was 2.04 µM and the IC50 (second compound 0.3 µM) was 2 µM. It also gave a viability, T/C [1] of 104%, a viability, T/C [2] of 97.3% and a viability, T/C [3] of 116%. The viability, T/C [4] was 133%, the viability, T/C [5] was 5.59% and the viability, T/C [6] was 9.62%. It also gave a viability, T/C [7] of 102%, a viability, T/C [8] of 109% and a viability, T/C [9] of 116%. For the same compound, the viability, T/C [10] was 133%, the viability, T/C [11] was 5.13% and the viability, T/C [12] was 10.4%. For the same compound, the viability, T/C [13] was 95.7%, the viability, T/C [14] was 112% and the viability, T/C [15] was 101%. It also gave a viability, T/C [16] of 138%, a viability, T/C [17] of 4.94% and a viability, T/C [18] of 11.5%. The viability, T/C [19] was 104%, the viability, T/C [20] was 103% and the viability, T/C [21] was 112%. It also gave a viability, T/C [22] of 152%, a viability, T/C [23] of 4.96% and a viability, T/C [24] of 11%. The viability, T/C [25] was 105%, the viability, T/C [26] was 108% and the viability, T/C [27] was 114%. It also gave a viability, T/C [28] of 149%, a viability, T/C [29] of 5.12% and a viability, T/C [30] of 10.1%. The viability, T/C [31] was 108%, the viability, T/C [32] was 111% and the viability, T/C [33] was 120%. The viability, T/C [34] was 123%, the viability, T/C [35] was 4.15% and the viability, T/C [36] was 9.84%.
`Cc1nc(N2CCC3(CC2)COC(C)C3N)c(CO)nc1Sc1ccnc(N)c1Cl` (stereo unspecified) + CCn1c(-c2cccnc2C(C)OC)c2c3cc(ccc31)N1CCOC(CC(NC(=O)C(C(C)C)N(C)C(=O)C3(F)CCN(C(=O)C#CC(C)(C)N(C)C)CC3)C(=O)N3CCCC(N3)C(=O)OCC(C)(C)C2)C1 gave an IC50 (second compound 0.000949 µM) of over 10 µM, an IC50 (second compound 0.003 µM) of over 10 µM and an IC50 (second compound 0.00949 µM) of over 10 µM. For the same compound, the IC50 (second compound 0.03 µM) was over 10 µM, the IC50 (second compound 0.0949 µM) was over 10 µM and the IC50 (second compound 0.3 µM) was over 10 µM. The viability, T/C [1] was 94.1%, the viability, T/C [2] was 108% and the viability, T/C [3] was 86.1%. It also gave a viability, T/C [4] of 79.1%, a viability, T/C [5] of 78.1% and a viability, T/C [6] of 70.2%. For the same compound, the viability, T/C [7] was 95.8%, the viability, T/C [8] was 98% and the viability, T/C [9] was 95.4%. For the same compound, the viability, T/C [10] was 84.8%, the viability, T/C [11] was 80.3% and the viability, T/C [12] was 79.5%. For the same compound, the viability, T/C [13] was 90%, the viability, T/C [14] was 99.6% and the viability, T/C [15] was 97.9%. It also gave a viability, T/C [16] of 96.2%, a viability, T/C [17] of 80.4% and a viability, T/C [18] of 72.7%. The viability, T/C [19] was 104%, the viability, T/C [20] was 96.9% and the viability, T/C [21] was 85.3%. It also gave a viability, T/C [22] of 103%, a viability, T/C [23] of 83.9% and a viability, T/C [24] of 61.7%. The viability, T/C [25] was 90.5%, the viability, T/C [26] was 92.8% and the viability, T/C [27] was 84.2%. It also gave a viability, T/C [28] of 95.1%, a viability, T/C [29] of 83.9% and a viability, T/C [30] of 74.2%. For the same compound, the viability, T/C [31] was 110%, the viability, T/C [32] was 94.6% and the viability, T/C [33] was 83.2%. It also gave a viability, T/C [34] of 87.2%, a viability, T/C [35] of 85.5% and a viability, T/C [36] of 63.3%.
`NC1c2ccccc2OC12CCN(c1cnc3c(N4CCCc5ncccc54)n[nH]c3n1)CC2` (stereo unspecified) + CCn1c(-c2cccnc2C(C)OC)c2c3cc(ccc31)N1CCOC(CC(NC(=O)C(C(C)C)N(C)C(=O)C3(F)CCN(C(=O)C#CC(C)(C)N(C)C)CC3)C(=O)N3CCCC(N3)C(=O)OCC(C)(C)C2)C1 showed an IC50 (second compound 0.000949 µM) of over 10 µM, an IC50 (second compound 0.003 µM) of over 10 µM and an IC50 (second compound 0.00949 µM) of over 10 µM. It also gave an IC50 (second compound 0.03 µM) of over 10 µM, an IC50 (second compound 0.0949 µM) of over 10 µM and an IC50 (second compound 0.3 µM) of over 10 µM. For the same compound, the viability, T/C [1] was 84.7%, the viability, T/C [2] was 84.3% and the viability, T/C [3] was 81.9%. It also gave a viability, T/C [4] of 91.1%, a viability, T/C [5] of 86.6% and a viability, T/C [6] of 81.9%. For the same compound, the viability, T/C [7] was 85.7%, the viability, T/C [8] was 90.1% and the viability, T/C [9] was 82.8%. For the same compound, the viability, T/C [10] was 80.5%, the viability, T/C [11] was 92.8% and the viability, T/C [12] was 87.9%. It also gave a viability, T/C [13] of 89.7%, a viability, T/C [14] of 90.3% and a viability, T/C [15] of 82.6%. The viability, T/C [16] was 78.6%, the viability, T/C [17] was 88.9% and the viability, T/C [18] was 84.9%. The viability, T/C [19] was 98.7%, the viability, T/C [20] was 93% and the viability, T/C [21] was 82.7%. It also gave a viability, T/C [22] of 79.2%, a viability, T/C [23] of 83.6% and a viability, T/C [24] of 81.4%. The viability, T/C [25] was 82.3%, the viability, T/C [26] was 86.8% and the viability, T/C [27] was 81.1%. For the same compound, the viability, T/C [28] was 77%, the viability, T/C [29] was 87.7% and the viability, T/C [30] was 76.5%. It also gave a viability, T/C [31] of 78.3%, a viability, T/C [32] of 86.1% and a viability, T/C [33] of 75.3%. The viability, T/C [34] was 81.1%, the viability, T/C [35] was 98.2% and the viability, T/C [36] was 69.7%.

Source: PubChem BioAssay AID2060902 (Molecular Pharmacology Branch, DTP, NCI, 2025)
